Values quoted from earlier work as cited in patent US20110226621A1, “TARGET RECOGNITION MOLECULE AND A METHOD FOR IMMOBILIZING THE SAME” (Sharp Kabushiki Kaisha, priority 2009, published 2011).
Read-outs that look alike come from different tables or passages of the source.

Conditions: individual amino acid
[1] = Table 1 repeated in Example 1-1

| Structure (SMILES) | isoelectric point (Table 1 in summary) | isoelectric point [1] |
| --- | --- | --- |
| C[C@H](N)C(=O)O [alanine] | 6.00 | 6.00 |
| N=C(N)NCCC[C@H](N)C(=O)O [arginine] | 10.76 | 10.76 |
| NC(=O)C[C@H](N)C(=O)O [asparagine] | 5.41 | 5.41 |
| N[C@@H](Cc1c[nH]cn1)C(=O)O [histidine] | 7.59 | 7.59 |
| NCCCC[C@H](N)C(=O)O [lysine] | 9.75 | 9.75 |
| N[C@@H](Cc1c[nH]c2ccccc12)C(=O)O [tryptophan] | 5.89 | 5.89 |
| N[C@@H](CS)C(=O)O [cysteine] | 5.05 | 5.05 |
| N[C@@H](CC(=O)O)C(=O)O [aspartic acid] | 2.77 | 2.77 |

The remaining lines, values ahead:

| isoelectric point (Table 1 in summary) | isoelectric point [1] | Structure (SMILES) |
| --- | --- | --- |
| 5.66 | 5.66 | N[C@@H](Cc1ccc(O)cc1)C(=O)O [tyrosine] |
| 5.68 | 5.68 | N[C@@H](CO)C(=O)O [serine] |
| 5.48 | 5.48 | N[C@@H](Cc1ccccc1)C(=O)O [phenylalanine] |
| 6.16 | 6.16 | C[C@@H](O)[C@H](N)C(=O)O [threonine] |
| 3.22 | 3.22 | N[C@@H](CCC(=O)O)C(=O)O [glutamic acid] |
| 6.05 | 6.05 | CC[C@H](C)[C@H](N)C(=O)O [isoleucine] |
| 5.97 | 5.97 | NCC(=O)O [glycine] |
| 5.74 | 5.74 | CSCC[C@H](N)C(=O)O [methionine] |
| 5.96 | 5.96 | CC(C)[C@H](N)C(=O)O [valine] |
| 6.30 | 6.30 | O=C(O)[C@@H]1CCCN1 [proline] |
